# Results from patent US20250249056A1, “CANCER THERAPIES COMPRISING A NUCLEAR EXPORT INHIBITOR AND AN ONCOLYTIC VIRUS” (priority 2022, published 2025).
# Read-outs that look alike come from different tables or passages of the source.
# Test system: Colo205 cells
# Format: cell-based, human
# [1] = selinexor-treated nucleus vs MYXV + selinexor-treated nucleus
smiles,measurement,setting,value
O=C(/C=C\n1cnc(-c2cc(C(F)(F)F)cc(C(F)(F)F)c2)n1)NNc1cnccn1 [selinexor],"Differential protein expression, NPAT","Q14207, selinexor-treated cytoplasm vs control cytoplasm",0.01
same,"Differential protein expression, DSC3","Q14574, selinexor-treated cytoplasm vs control cytoplasm",2.069
same,"Differential protein expression, NCOA6","Q14686, selinexor-treated cytoplasm vs control cytoplasm",0.01
same,"Differential protein expression, SETDB1","Q15047, selinexor-treated cytoplasm vs control cytoplasm",0.01
same,"Differential protein expression, RRS1","Q15050, selinexor-treated cytoplasm vs control cytoplasm",2.155
same,"Differential protein expression, TOMM20","Q15388, selinexor-treated cytoplasm vs control cytoplasm",2.862
same,"Differential protein expression, CDSN","Q15517, selinexor-treated cytoplasm vs control cytoplasm",3.988
same,"Differential protein expression, TAF7","Q15545, selinexor-treated cytoplasm vs control cytoplasm",0.402
same,"Differential protein expression, TAF1C","Q15572, selinexor-treated cytoplasm vs control cytoplasm",100
same,"Differential protein expression, ELF2","Q15723, selinexor-treated cytoplasm vs control cytoplasm",0.01
same,"Differential protein expression, M11L","Q85295, selinexor-treated cytoplasm vs control cytoplasm",4.074
same,"Differential protein expression, MYO18A","Q92614, selinexor-treated cytoplasm vs control cytoplasm",2.026
same,"Differential protein expression, USP6NL","Q92738, selinexor-treated cytoplasm vs control cytoplasm",100
same,"Differential protein expression, TAF15","Q92804, selinexor-treated cytoplasm vs control cytoplasm",2.706
same,"Differential protein expression, KAT5","Q92993, selinexor-treated cytoplasm vs control cytoplasm",7.08
same,"Differential protein expression, TEAD3","Q99594, selinexor-treated cytoplasm vs control cytoplasm",100
same,"Differential protein expression, SLC29A1","Q99808, selinexor-treated cytoplasm vs control cytoplasm",0.406
same,"Differential protein expression, selinexor-treated nucleus vs control nucleus",protein AAAS (Q9NRG9),0.477
same,"Differential protein expression, selinexor-treated nucleus vs control nucleus",protein ABHD10 (Q9NUJ1),2.289
same,"Differential protein expression, selinexor-treated nucleus vs control nucleus",protein ACAD10 (Q6JQN1),2.239
same,"Differential protein expression, selinexor-treated nucleus vs control nucleus",protein BRIX1 (Q8TDN6),0.475
same,"Differential protein expression, selinexor-treated nucleus vs control nucleus",protein CALML5 (Q9NZT1),2.328
same,"Differential protein expression, selinexor-treated nucleus vs control nucleus",protein CASP9 (P55211),100
same,"Differential protein expression, selinexor-treated nucleus vs control nucleus",protein CDK3 (Q00526),0.472
same,"Differential protein expression, selinexor-treated nucleus vs control nucleus",protein CHMP2B (Q9UQN3),2.092
same,"Differential protein expression, selinexor-treated nucleus vs control nucleus",protein CIB1 (Q99828),0.474
same,"Differential protein expression, selinexor-treated nucleus vs control nucleus",protein CIT (O14578),0.498
same,"Differential protein expression, selinexor-treated nucleus vs control nucleus",protein COA1 (Q9GZY4),0.481
same,"Differential protein expression, selinexor-treated nucleus vs control nucleus",protein CSTA (P01040),2.196
same,"Differential protein expression, selinexor-treated nucleus vs control nucleus",protein ECHDC1 (Q9NTX5),2.716
same,"Differential protein expression, selinexor-treated nucleus vs control nucleus",protein EFNB1 (P98172),100
same,"Differential protein expression, selinexor-treated nucleus vs control nucleus",protein ERLIN2 (O94905),0.498
same,"Differential protein expression, selinexor-treated nucleus vs control nucleus",protein F5 (P12259),100
same,"Differential protein expression, selinexor-treated nucleus vs control nucleus",protein FBLIM1 (Q8WUP2),0.481
same,"Differential protein expression, selinexor-treated nucleus vs control nucleus",protein FHIP1B (Q8N612),100
same,"Differential protein expression, selinexor-treated nucleus vs control nucleus",protein FN3K (Q9H479),2.007
same,"Differential protein expression, selinexor-treated nucleus vs control nucleus",protein FOS (P01100),2.044
same,"Differential protein expression, selinexor-treated nucleus vs control nucleus",protein FXR1 (Q9UM11),2.17
same,"Differential protein expression, selinexor-treated nucleus vs control nucleus",protein GEMIN5 (Q8TEQ6),0.496
same,"Differential protein expression, selinexor-treated nucleus vs control nucleus",protein GEMIN6 (Q8WXD5),0.473
same,"Differential protein expression, selinexor-treated nucleus vs control nucleus",protein GNL2 (Q13823),2.38
same,"Differential protein expression, selinexor-treated nucleus vs control nucleus",protein H2AC1 (Q96QV6),2.215
same,"Differential protein expression, selinexor-treated nucleus vs control nucleus",protein H2AC4 (P04908),2.544
same,"Differential protein expression, selinexor-treated nucleus vs control nucleus",protein H2AC6 (Q93077),2.544
same,"Differential protein expression, selinexor-treated nucleus vs control nucleus",protein H2AC18 (Q6FI13),2.322
same,"Differential protein expression, selinexor-treated nucleus vs control nucleus",protein H2AC20 (Q16777),2.322
same,"Differential protein expression, selinexor-treated nucleus vs control nucleus",protein H2AC21 (Q8IUE6),2.215
same,"Differential protein expression, selinexor-treated nucleus vs control nucleus",protein H2AC25 (Q7L7L0),2.544
same,"Differential protein expression, selinexor-treated nucleus vs control nucleus",protein H2AX (P16104),2.215
same,"Differential protein expression, selinexor-treated nucleus vs control nucleus",protein H2BK1 (A0A2R8Y619),2.69
same,"Differential protein expression, selinexor-treated nucleus vs control nucleus",protein H3-3A (P84243),2.584
same,"Differential protein expression, selinexor-treated nucleus vs control nucleus",protein HK1 (P19367),0.496
same,"Differential protein expression, selinexor-treated nucleus vs control nucleus",protein HNRNPA1L2 (Q32P51),2.623
same,"Differential protein expression, selinexor-treated nucleus vs control nucleus",protein KIF23 (Q02241),0.492
same,"Differential protein expression, selinexor-treated nucleus vs control nucleus",protein KRT1 (P04264),2.317
same,"Differential protein expression, selinexor-treated nucleus vs control nucleus",protein KRT7 (P08729),2.576
same,"Differential protein expression, selinexor-treated nucleus vs control nucleus",protein KRT14 (P02533),2.157
same,"Differential protein expression, selinexor-treated nucleus vs control nucleus",protein KRT24 (Q2M2I5),2.19
same,"Differential protein expression, selinexor-treated nucleus vs control nucleus",protein KRT25 (Q7Z3Z0),2.158
same,"Differential protein expression, selinexor-treated nucleus vs control nucleus",protein KRT27 (Q7Z3Y8),2.158
same,"Differential protein expression, selinexor-treated nucleus vs control nucleus",protein KRT28 (Q7Z3Y7),2.058
same,"Differential protein expression, selinexor-treated nucleus vs control nucleus",protein LGALS7 (P47929),2.013
same,"Differential protein expression, selinexor-treated nucleus vs control nucleus",protein LRRC58 (Q96CX6),2.747
same,"Differential protein expression, selinexor-treated nucleus vs control nucleus",protein MAFF (Q9ULX9),2.133
same,"Differential protein expression, selinexor-treated nucleus vs control nucleus",protein MAGED2 (Q9UNF1),2.271
same,"Differential protein expression, selinexor-treated nucleus vs control nucleus",protein MAN1A1 (P33908),100
same,"Differential protein expression, selinexor-treated nucleus vs control nucleus",protein MICOS13 (Q5XKP0),0.483
same,"Differential protein expression, selinexor-treated nucleus vs control nucleus",protein MTX1 (Q13505),0.499
same,"Differential protein expression, selinexor-treated nucleus vs control nucleus",protein NDE1 (Q9NXR1),0.484
same,"Differential protein expression, selinexor-treated nucleus vs control nucleus",protein NDEL1 (Q9GZM8),0.481
same,"Differential protein expression, selinexor-treated nucleus vs control nucleus",protein NDUFA5 (Q16718),0.488
same,"Differential protein expression, selinexor-treated nucleus vs control nucleus",protein NDUFA11 (Q86Y39),0.492
same,"Differential protein expression, selinexor-treated nucleus vs control nucleus",protein NDUFS3 (075489),0.478
same,"Differential protein expression, selinexor-treated nucleus vs control nucleus",protein NDUFS8 (O00217),0.487
same,"Differential protein expression, selinexor-treated nucleus vs control nucleus",protein NFAT5 (O94916),2.586
same,"Differential protein expression, selinexor-treated nucleus vs control nucleus",protein NUDT3 (O95989),100
same,"Differential protein expression, selinexor-treated nucleus vs control nucleus",protein NXN (Q6DKJ4),100
same,"Differential protein expression, selinexor-treated nucleus vs control nucleus",protein OAS1 (P00973),2.45
same,"Differential protein expression, selinexor-treated nucleus vs control nucleus",protein OCIAD2 (Q56VL3),0.5
same,"Differential protein expression, selinexor-treated nucleus vs control nucleus",protein PAN2 (Q504Q3),2.108
same,"Differential protein expression, selinexor-treated nucleus vs control nucleus",protein PAN3 (Q58A45),2.073
same,"Differential protein expression, selinexor-treated nucleus vs control nucleus",protein PANK1 (Q8TE04),100
same,"Differential protein expression, selinexor-treated nucleus vs control nucleus",protein PATL1 (Q86TB9),0.487
same,"Differential protein expression, selinexor-treated nucleus vs control nucleus",protein PAXX (Q9BUH6),2.321
same,"Differential protein expression, selinexor-treated nucleus vs control nucleus",protein PHF19 (Q5T6S3),0.477
same,"Differential protein expression, selinexor-treated nucleus vs control nucleus",protein PNO1 (Q9NRX1),2.639
same,"Differential protein expression, selinexor-treated nucleus vs control nucleus",protein POLR2B (P30876),0.486
same,"Differential protein expression, selinexor-treated nucleus vs control nucleus",protein PRDX4 (Q13162),2.477
same,"Differential protein expression, selinexor-treated nucleus vs control nucleus",protein RBL2 (Q08999),2.063
same,"Differential protein expression, selinexor-treated nucleus vs control nucleus",protein ROCK1 (Q13464),2.201
same,"Differential protein expression, selinexor-treated nucleus vs control nucleus",protein RPL10 (P27635),0.483
same,"Differential protein expression, selinexor-treated nucleus vs control nucleus",protein RPL10L (Q96L21),0.473
same,"Differential protein expression, selinexor-treated nucleus vs control nucleus",protein RPLP1 (P05386),0.472
same,"Differential protein expression, selinexor-treated nucleus vs control nucleus",protein RRM1 (P23921),0.488
same,"Differential protein expression, selinexor-treated nucleus vs control nucleus",protein RTN4 (Q9NQC3),0.491
same,"Differential protein expression, selinexor-treated nucleus vs control nucleus",protein S100A8 (P05109),2.396
same,"Differential protein expression, selinexor-treated nucleus vs control nucleus",protein SDAD1 (Q9NVU7),2.021
same,"Differential protein expression, selinexor-treated nucleus vs control nucleus",protein SDCBP2 (Q9H190),2.735
same,"Differential protein expression, selinexor-treated nucleus vs control nucleus",protein SFXN2 (Q96NB2),0.478
same,"Differential protein expression, selinexor-treated nucleus vs control nucleus",protein SFXN5 (Q8TD22),0.48
same,"Differential protein expression, selinexor-treated nucleus vs control nucleus",protein SLC12A7 (Q9Y666),0.496
same,"Differential protein expression, selinexor-treated nucleus vs control nucleus",protein SLC25A11 (Q02978),0.496
same,"Differential protein expression, selinexor-treated nucleus vs control nucleus",protein SLC25A12 (O75746),0.483
same,"Differential protein expression, selinexor-treated nucleus vs control nucleus",protein SLC25A17 (O43808),0.484
same,"Differential protein expression, selinexor-treated nucleus vs control nucleus",protein SLC25A35 (Q3KQZ1),0.474
same,"Differential protein expression, selinexor-treated nucleus vs control nucleus",protein SPG7 (Q9UQ90),0.481
same,"Differential protein expression, selinexor-treated nucleus vs control nucleus",protein TDRKH (Q9Y2W6),0.492
same,"Differential protein expression, selinexor-treated nucleus vs control nucleus",protein TEAD2 (Q15562),0.487
same,"Differential protein expression, selinexor-treated nucleus vs control nucleus",protein TEAD4 (Q15561),0.494
same,"Differential protein expression, selinexor-treated nucleus vs control nucleus",protein TMA7 (Q9Y2S6),2.251
same,"Differential protein expression, selinexor-treated nucleus vs control nucleus",protein TOMM20 (Q15388),0.497
same,"Differential protein expression, selinexor-treated nucleus vs control nucleus",protein TPPP3 (Q9BW30),2.549
same,"Differential protein expression, selinexor-treated nucleus vs control nucleus",protein UQCR10 (Q9UDW1),0.477
same,"Differential protein expression, selinexor-treated nucleus vs control nucleus",protein VCPIP1 (Q96JH7),2.057
same,"Differential protein expression, selinexor-treated nucleus vs control nucleus",protein YBX1 (P67809),0.477
same,"Differential protein expression, selinexor-treated nucleus vs control nucleus",protein m090L (D2WN26),100
same,"Differential protein expression, selinexor-treated nucleus vs control nucleus",protein m093L (Q9Q8K7),0.498
same,Differential protein expression B2CWA6 m003.1R,[1],0.145
same,Differential protein expression B2CWA8,[1],0.122
same,Differential protein expression B2CWB0,[1],0.01
same,Differential protein expression B2CWB2,[1],0.055
same,Differential protein expression B2CWB4 m008.1L,[1],0.045
same,Differential protein expression B2CWB5,[1],0.036
same,Differential protein expression B2CWC0,[1],0.092
same,Differential protein expression B2CWC1 m015L,[1],0.04
same,Differential protein expression B2CWC6 m020L,[1],0.191
same,Differential protein expression B2CWC8,[1],0.058
same,Differential protein expression B2CWD4 m027L,[1],0.045
same,Differential protein expression B2CWD6 m029L,[1],0.023
same,Differential protein expression B2CWD8,[1],0.011
same,Differential protein expression B2CWE0 m033R,[1],0.01
same,Differential protein expression B2CWE1,[1],0.047
same,Differential protein expression B2CWE3,[1],0.064
same,Differential protein expression B2CWF3 m046L,[1],0.111
same,Differential protein expression B2CWF4 m047R,[1],0.039
same,Differential protein expression B2CWF6,[1],0.051
